# From patent US12414947B2, “Use of FGFR inhibitors for treatment of idiopathic short stature” (CEDARS-SINAI MEDICAL CENTER, priority 2019, dated 2025)
# How the values were obtained:
# [1] = system: Patient normal fibroblast cells; assay: Cell Survival Assay (WST-1) (FIGS. 6, 7); type: cell-based, human
# Description: Fibroblasts were seeded 5×10^4 cells/well (96 well format), grow in αMEM+15% for 24 hr. […] WST-1 reagent was added, 10 μl/well, 1 hr, spectrophotometry analysis. 3 wells per test sample. NC, normal control.
# Assay set up as described in FIG. 6, except IGF-I (100 ng/ml), IGF2 (100 ng/ml) or FGF2 (40 ng/ml) added as indicated. Cell survival was assayed over 5 days.
# [2] = Case report: height growth of patient CC0419 during erdafitinib therapy; type: in vivo, human
# Source text: FIG. 1 depicts a child's growth chart.
# (§1) […], they underwent a biopsy for a second recurrence.
# [3] = system: Patient normal fibroblasts; assay: Immunoblot analysis for apoptosis markers (FIG. 5); type: cell-based, human
# Source text: FIG. 5 depicts the effects on apoptosis.
# [4] = in vivo
# Source text: as §1
# [5] = Example 3: child with short stature given erdafitinib; type: in vivo, human; conditions: six-month period, from the 10%
# Source text: A child presents with short stature. […] Their height growth velocity increased resulting in a jump in height from the 10% up to the 50% for their age.
# [6] = system: pERK1/2 and pAKT signaling in Patient normal fibroblast cells; conditions: IGF-I 100 ng/ml, IGF-2 100 ng/ml; erdafitinib 0-300 nM
# Source text: FIG. 4 depicts signaling effects. […] Test working hypothesis using Patient's normal fibroblast cells as the model system. Fibroblasts, grown in αMEM+15% FBS till ˜80% confluency, were serum-starve for 18 hr in αMEM+0.1% BSA.
# In vitro assays, with read-outs: signaling (pERK, pAKT), proliferation/survival assays (WST-1).
smiles,measurement,setting,value
"COc1cc(OC)cc(N(CCNC(C)C)c2ccc3ncc(-c4cnn(C)c4)nc3c2)c1 [Erdafitinib, erdafitinib]",cell survival (WST-1),"[1]; 0-300 nM, 1-5 days, serum-free media, 5×10^4 cells/well",dose-dependently decreased survival
same,survival of erdafitinib-treated cells with growth factors (WST-1),"[1]; IGF-I 100 ng/ml, IGF2 100 ng/ml or FGF2 40 ng/ml, over 5 days","IGF-I, but not FGF2, has significant protective effects"
same,total growth in height,[2]; 9-month therapy (7 mg then 5 mg orally daily) plus one month after cessation,14.3 cm
same,total growth in height,[2]; 9-month therapy plus one month after cessation,5.63 inches
same,height percentile,"[2]; 10 months from initiation of treatment, from 15th percentile",70 percentile
same,growth velocity,"[2]; on therapy, from 3.653 cm/year before",18.06 cm/year
same,growth velocity (percentile),"[2]; on therapy, from 40% before, wildtype germline FGFR",> 99%
same,height percentile,"[2]; starting ~2 months into therapy, from ~15 percentile",23 percentile
same,height percentile,"[2]; within one month of initiating treatment, from 15th percentile, child",48 percentile
same,"apoptotic markers, cleaved Caspase 3 and cleaved PARP","[3]; by 24 hrs, erdafitinib treated cells without IGF-I",detected
same,apoptotic markers when IGF-I was present,"[3]; lysates 24 and 48 hr post-treatment, IGF-I 100 ng/ml",not detected (or significantly blunted)
same,Dexa bone scan interpretation,[4],consistent with osteoporosis
same,"GH, random (rating)",[4],normal
same,IGF-1 Z-score,[4],−1.7
same,IGF-I SDS,[4],−1.4 SDS
same,IGF-II (rating),[4],normal
same,IGFBP-3 (rating),[4],normal
same,Metabolic panel: creatine (rating),[4],below normal
same,RDW (red cell distribution width),[4],16.4%
same,"Testosterone, free and total (rating)",[4],abnormally low
same,bone age,[4],~14 year
same,bone age delay compared to CA (x-ray hand and wrist),[4],~2 yrs
same,"bone age, standard deviation below the mean",[4],greater than 2 standard deviation
same,events that led to discontinuation,[4],"scoliosis of the thoracic region, kyphosis of the upper cervical region, and hip flexion contractures"
same,hyperphosphatemia,[4],Transient hyperphosphatemia
same,"lumbar spine bone density, standard deviations below mean for age-matched population",[4],3.8 standard deviations
same,mean bone density value for the lumbar spine (Dexa),[4],0.6322 gm/sq·cm
same,musculoskeletal problems,[4],rapid growth and kyphosis/scoliosis which required surgery
same,x-ray hand and wrist finding: osteochondrosis,[4],A suggestion of osteochondrosis
same,x-ray hand and wrist finding: periosteal reaction,[4],"Periosteal reaction (distal radius, ulna, first metacarpal)"
same,adverse events that led to dose reduction,[4]; po,musculoskeletal pain and high phosphorus levels
same,height percentile for age,[5],50%
same,"pERK1/2 in presence of ligands (IGF-1, IGF2)",[6],remains erdafitinib-suppressed
